How the values were obtained:
Format in all cases: cell-based
rat GluN1/GluN2A [1] = target: T1, rat GluN1/GluN2A (Rattus norvegicus, UniProt P35439+Q00959); assay: Two-electrode voltage-clamp recording in Xenopus laevis oocytes expressing recombinant rat GluN1/GluN2A; settings: for remaining activity at 30 µM: 30 μM test compound, current ratio, oocytes, read-out: I30 μM/Icontrol (mean ± SEM, %) GluN2A; for IC50: Tables 1 and 2, read-out: IC50 (μM) [95% Confidence Interval] GluN2A
T1 construct: expressed in transfected cells; host or cells: Xenopus laevis oocytes (cRNA injection, GluN1/GluN2 ratio 1:2)
Method: (§1) Two-electrode voltage-clamp recording was performed in Xenopus laevis oocytes injected with mRNA to express recombinant rat GluN1/GluN2A, GluN1/GluN2B, GluN1/GluN2C, and GluN1/GluN2D. cDNAs for rat NMDA subunits GluN1-la (GenBank U08261; hereafter GluN1), GluN2A (GenBank D13211), GluN2B (GenBank U11419), GluN2C (GenBank M91563), and GluN2D (GenBank L31611) were provided by Drs. S. Heinemann from Salk Institute, S. Nakanishi from Kyoto University, and P. Seeburg from the University of Heidelberg. An automatic injector (Nanoject II, Drummond Scientific) was used for cRNA injection using the pipettes filled with mineral oil. The cRNA that transcribed in vitro via the mMessage Machine kit (Ambion) was diluted with nuclease-free water, and then injected at a GluN1/GluN2 ratio of 1:2. The oocytes were stored in Barth's solution that contained 88 mM NaCl, 5.0 mM Tris-HCl, 2.4 mM NaHCO3, 1.0 mM KCl, 0.84 mM MgSO4, 0.41 mM CaCl2), 0.33 mM Ca(NO3)2, 0.1 mg/ml gentamycin sulfate, 1.0 U/ml penicillin, and 1 μg/ml streptomycin at pH 7.4 and temperatures of 15-17° C. for two to five days before the two-electrode voltage-clamp recordings.
(§2) During recording, the oocytes were placed in a perfusion chamber and continually washed with the recording solution containing 90 mM NaCl, 1.0 mM KCl, 0.50 mM BaCl2, 0.005 mM EDTA, and 10 mM HEPES at pH 7.4 and a temperature of 23° C. Glass electrodes with a tip resistance of 0.5 to 2.5 MΩ were obtained from thin-walled glass capillary tubes. Voltage electrodes and current electrodes were filled with 0.3 M and 3.0 M KCl, respectively. The recordings were executed with the oocytes membrane potential holding at −40 mV by an OC-725 amplifier (Warner Instrument Co.). All compounds were dissolved in dimethyl sulfoxide (DMSO) as 20 mM stock solutions and further diluted to reach the desired concentration (0.05-0.5% (vol/vol) DMSO) in recording solution comprised of 30 µM glycine and 100 µM glutamate. In general, each compound was tested in multiple oocytes. To evaluate the inhibitory efficacy of the compounds, concentration-response curves were plotted using the average two-electrode voltage-clamp recording results and fitted by the following equation:
(§3) response=100/{1+[(inhibitor concentration)/IC50]^N} • where IC50 is the concentration of compound that inhibit half maximal of the current response and N is the Hill slope.

rat GluN1/GluN2B [2] = target: T2, rat GluN1/GluN2B (Rattus norvegicus, UniProt P35439+Q00960); assay: Two-electrode voltage-clamp recording in Xenopus laevis oocytes expressing recombinant rat GluN1/GluN2B; settings: for remaining activity at 30 µM: 30 μM test compound, current ratio, oocytes, read-out: I30 μM/Icontrol (mean ± SEM, %) GluN2B; for IC50: Tables 1 and 2, read-out: IC50 (μM) [95% Confidence Interval] GluN2B
T2 construct: expressed in transfected cells; host or cells: Xenopus laevis oocytes (cRNA injection, GluN1/GluN2 ratio 1:2)
Method: as §1, §2, §3

rat GluN1/GluN2C [3] = target: T3, rat GluN1/GluN2C (Rattus norvegicus, UniProt P35439+Q00961); assay: Two-electrode voltage-clamp recording in Xenopus laevis oocytes expressing recombinant rat GluN1/GluN2C; settings: for remaining activity at 30 µM: 30 μM test compound, current ratio, oocytes, read-out: I30 μM/Icontrol (mean ± SEM, %) GluN2C; for IC50: Tables 1 and 2, read-out: IC50 (μM) [95% Confidence Interval] GluN2C
T3 construct: expressed in transfected cells; host or cells: Xenopus laevis oocytes (cRNA injection, GluN1/GluN2 ratio 1:2)
Method: as §1, §2, §3

rat GluN1/GluN2D [4] = target: T4, rat GluN1/GluN2D (Rattus norvegicus, UniProt P35439+Q62645); assay: Two-electrode voltage-clamp recording in Xenopus laevis oocytes expressing recombinant rat GluN1/GluN2D; settings: for remaining activity at 30 µM: 30 μM test compound, current ratio, oocytes, read-out: I30 μM/Icontrol (mean ± SEM, %) GluN2D; for IC50: Tables 1 and 2, read-out: IC50 (μM) [95% Confidence Interval] GluN2D
T4 construct: expressed in transfected cells; host or cells: Xenopus laevis oocytes (cRNA injection, GluN1/GluN2 ratio 1:2)
Method: as §1, §2, §3

rat GluN1/GluN2D [5] = target: T5, rat GluN1/GluN2D (Rattus norvegicus, UniProt Q62645); assay: as above; settings: for Subunit Selectivity 2A IC50/2D IC50: ratio of GluN2A IC50 to GluN2D IC50; for Subunit Selectivity 2B IC50/2D IC50: ratio of GluN2B IC50 to GluN2D IC50
T5 construct: expressed in transfected cells; host or cells: Xenopus laevis oocytes (cRNA injection, GluN1/GluN2 ratio 1:2)
Method: as §1, §2, §3

rat GluN1/GluN2B [6] = target: T6, rat GluN1/GluN2B (Rattus norvegicus, UniProt Q00960); assay: Two-electrode voltage-clamp recording in Xenopus laevis oocytes expressing recombinant rat GluN1/GluN2B
T6 construct: expressed in transfected cells; host or cells: Xenopus laevis oocytes (cRNA injection, GluN1/GluN2 ratio 1:2)
Method: as §1, §2, §3

rat GluN1/GluN2A [7] = target: T7, rat GluN1/GluN2A (Rattus norvegicus, UniProt Q00959); assay: Two-electrode voltage-clamp recording in Xenopus laevis oocytes expressing recombinant rat GluN1/GluN2A; settings: current ratio reported for 10 μM test compound (footnote c)
T7 construct: expressed in transfected cells; host or cells: Xenopus laevis oocytes (cRNA injection, GluN1/GluN2 ratio 1:2)
Method: as §1, §2, §3

rat GluN1/GluN2C [8] = target: T8, rat GluN1/GluN2C (Rattus norvegicus, UniProt Q00961); assay: Two-electrode voltage-clamp recording in Xenopus laevis oocytes expressing recombinant rat GluN1/GluN2C; settings: current ratio reported for 10 μM test compound (footnote c)
T8 construct: expressed in transfected cells; host or cells: Xenopus laevis oocytes (cRNA injection, GluN1/GluN2 ratio 1:2)
Method: as §1, §2, §3

[9] = current ratio reported for 10 μM test compound (footnote c)

T2 sequence (Q00960 27-1482, other chains not shown): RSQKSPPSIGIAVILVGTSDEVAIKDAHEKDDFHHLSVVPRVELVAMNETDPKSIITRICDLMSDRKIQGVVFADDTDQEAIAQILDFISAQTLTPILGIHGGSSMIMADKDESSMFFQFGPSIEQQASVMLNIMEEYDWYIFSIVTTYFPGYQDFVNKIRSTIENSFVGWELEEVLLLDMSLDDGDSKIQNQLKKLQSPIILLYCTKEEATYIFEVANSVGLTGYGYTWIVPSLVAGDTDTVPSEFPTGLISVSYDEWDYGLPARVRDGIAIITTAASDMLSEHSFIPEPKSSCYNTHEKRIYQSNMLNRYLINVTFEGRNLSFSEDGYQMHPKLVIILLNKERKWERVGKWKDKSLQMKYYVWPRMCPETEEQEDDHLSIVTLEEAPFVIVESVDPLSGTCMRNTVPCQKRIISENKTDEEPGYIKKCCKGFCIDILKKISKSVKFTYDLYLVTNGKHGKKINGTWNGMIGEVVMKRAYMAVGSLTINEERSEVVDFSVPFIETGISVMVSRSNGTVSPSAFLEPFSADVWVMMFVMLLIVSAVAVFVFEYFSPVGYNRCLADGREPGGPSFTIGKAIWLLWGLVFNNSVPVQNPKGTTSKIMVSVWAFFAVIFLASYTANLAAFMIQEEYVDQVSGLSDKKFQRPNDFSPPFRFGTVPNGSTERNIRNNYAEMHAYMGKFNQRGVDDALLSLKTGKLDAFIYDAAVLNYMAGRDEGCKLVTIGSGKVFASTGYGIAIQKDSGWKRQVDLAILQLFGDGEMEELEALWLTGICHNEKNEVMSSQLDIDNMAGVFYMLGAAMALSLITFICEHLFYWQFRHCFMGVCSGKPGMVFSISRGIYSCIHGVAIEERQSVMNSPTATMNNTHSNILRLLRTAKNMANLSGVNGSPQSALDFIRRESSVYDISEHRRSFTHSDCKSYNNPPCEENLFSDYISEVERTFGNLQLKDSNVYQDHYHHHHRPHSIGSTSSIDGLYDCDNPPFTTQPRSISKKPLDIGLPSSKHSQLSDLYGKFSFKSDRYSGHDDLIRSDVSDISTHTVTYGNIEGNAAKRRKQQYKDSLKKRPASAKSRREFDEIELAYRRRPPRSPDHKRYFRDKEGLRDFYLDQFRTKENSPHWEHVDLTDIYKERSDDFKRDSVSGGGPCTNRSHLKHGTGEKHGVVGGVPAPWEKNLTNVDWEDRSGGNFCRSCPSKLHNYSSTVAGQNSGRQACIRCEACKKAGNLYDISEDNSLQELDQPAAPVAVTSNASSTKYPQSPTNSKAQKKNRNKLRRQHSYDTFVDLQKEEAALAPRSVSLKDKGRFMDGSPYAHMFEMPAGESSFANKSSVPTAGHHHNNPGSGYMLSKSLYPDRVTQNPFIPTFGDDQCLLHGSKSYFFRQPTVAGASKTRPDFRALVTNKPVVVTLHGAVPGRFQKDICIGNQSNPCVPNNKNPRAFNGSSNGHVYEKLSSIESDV
T4 sequence (Q62645 28-1323, other chains not shown): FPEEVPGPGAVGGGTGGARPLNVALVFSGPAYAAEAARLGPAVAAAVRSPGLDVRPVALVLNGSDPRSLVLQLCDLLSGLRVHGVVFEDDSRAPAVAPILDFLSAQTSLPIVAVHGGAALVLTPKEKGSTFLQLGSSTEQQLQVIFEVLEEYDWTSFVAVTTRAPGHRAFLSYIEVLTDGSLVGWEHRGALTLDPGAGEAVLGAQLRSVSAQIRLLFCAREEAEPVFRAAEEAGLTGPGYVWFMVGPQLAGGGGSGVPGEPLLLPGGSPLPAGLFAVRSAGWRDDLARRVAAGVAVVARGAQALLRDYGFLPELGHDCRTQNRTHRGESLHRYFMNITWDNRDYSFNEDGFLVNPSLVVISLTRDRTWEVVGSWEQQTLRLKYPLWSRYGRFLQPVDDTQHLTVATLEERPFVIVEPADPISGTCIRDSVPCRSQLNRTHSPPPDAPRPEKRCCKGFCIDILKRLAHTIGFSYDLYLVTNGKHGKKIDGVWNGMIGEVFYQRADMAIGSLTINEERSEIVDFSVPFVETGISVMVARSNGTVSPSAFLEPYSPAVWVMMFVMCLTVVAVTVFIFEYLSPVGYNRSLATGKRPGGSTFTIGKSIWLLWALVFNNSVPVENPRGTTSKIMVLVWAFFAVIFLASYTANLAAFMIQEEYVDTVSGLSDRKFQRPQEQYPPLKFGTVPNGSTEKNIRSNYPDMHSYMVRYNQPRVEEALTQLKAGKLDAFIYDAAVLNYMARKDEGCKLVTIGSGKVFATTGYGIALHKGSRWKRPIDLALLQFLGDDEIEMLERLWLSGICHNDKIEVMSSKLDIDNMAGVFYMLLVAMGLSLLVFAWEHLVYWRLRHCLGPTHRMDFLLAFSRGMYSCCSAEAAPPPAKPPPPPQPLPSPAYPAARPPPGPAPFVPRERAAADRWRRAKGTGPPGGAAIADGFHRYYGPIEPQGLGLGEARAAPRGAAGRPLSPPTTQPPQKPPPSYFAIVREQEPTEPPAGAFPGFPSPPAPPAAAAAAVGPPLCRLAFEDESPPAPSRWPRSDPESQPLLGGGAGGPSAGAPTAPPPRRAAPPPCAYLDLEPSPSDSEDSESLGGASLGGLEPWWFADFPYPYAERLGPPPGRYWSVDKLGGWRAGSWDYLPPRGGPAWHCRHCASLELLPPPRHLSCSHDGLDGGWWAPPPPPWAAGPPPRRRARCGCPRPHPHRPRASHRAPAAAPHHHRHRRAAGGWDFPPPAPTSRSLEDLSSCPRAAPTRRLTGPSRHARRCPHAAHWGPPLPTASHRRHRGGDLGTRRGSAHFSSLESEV
T5 sequence (Q62645 28-1323, other chains not shown): as above
T1 sequence (Q00959 23-1464, other chains not shown): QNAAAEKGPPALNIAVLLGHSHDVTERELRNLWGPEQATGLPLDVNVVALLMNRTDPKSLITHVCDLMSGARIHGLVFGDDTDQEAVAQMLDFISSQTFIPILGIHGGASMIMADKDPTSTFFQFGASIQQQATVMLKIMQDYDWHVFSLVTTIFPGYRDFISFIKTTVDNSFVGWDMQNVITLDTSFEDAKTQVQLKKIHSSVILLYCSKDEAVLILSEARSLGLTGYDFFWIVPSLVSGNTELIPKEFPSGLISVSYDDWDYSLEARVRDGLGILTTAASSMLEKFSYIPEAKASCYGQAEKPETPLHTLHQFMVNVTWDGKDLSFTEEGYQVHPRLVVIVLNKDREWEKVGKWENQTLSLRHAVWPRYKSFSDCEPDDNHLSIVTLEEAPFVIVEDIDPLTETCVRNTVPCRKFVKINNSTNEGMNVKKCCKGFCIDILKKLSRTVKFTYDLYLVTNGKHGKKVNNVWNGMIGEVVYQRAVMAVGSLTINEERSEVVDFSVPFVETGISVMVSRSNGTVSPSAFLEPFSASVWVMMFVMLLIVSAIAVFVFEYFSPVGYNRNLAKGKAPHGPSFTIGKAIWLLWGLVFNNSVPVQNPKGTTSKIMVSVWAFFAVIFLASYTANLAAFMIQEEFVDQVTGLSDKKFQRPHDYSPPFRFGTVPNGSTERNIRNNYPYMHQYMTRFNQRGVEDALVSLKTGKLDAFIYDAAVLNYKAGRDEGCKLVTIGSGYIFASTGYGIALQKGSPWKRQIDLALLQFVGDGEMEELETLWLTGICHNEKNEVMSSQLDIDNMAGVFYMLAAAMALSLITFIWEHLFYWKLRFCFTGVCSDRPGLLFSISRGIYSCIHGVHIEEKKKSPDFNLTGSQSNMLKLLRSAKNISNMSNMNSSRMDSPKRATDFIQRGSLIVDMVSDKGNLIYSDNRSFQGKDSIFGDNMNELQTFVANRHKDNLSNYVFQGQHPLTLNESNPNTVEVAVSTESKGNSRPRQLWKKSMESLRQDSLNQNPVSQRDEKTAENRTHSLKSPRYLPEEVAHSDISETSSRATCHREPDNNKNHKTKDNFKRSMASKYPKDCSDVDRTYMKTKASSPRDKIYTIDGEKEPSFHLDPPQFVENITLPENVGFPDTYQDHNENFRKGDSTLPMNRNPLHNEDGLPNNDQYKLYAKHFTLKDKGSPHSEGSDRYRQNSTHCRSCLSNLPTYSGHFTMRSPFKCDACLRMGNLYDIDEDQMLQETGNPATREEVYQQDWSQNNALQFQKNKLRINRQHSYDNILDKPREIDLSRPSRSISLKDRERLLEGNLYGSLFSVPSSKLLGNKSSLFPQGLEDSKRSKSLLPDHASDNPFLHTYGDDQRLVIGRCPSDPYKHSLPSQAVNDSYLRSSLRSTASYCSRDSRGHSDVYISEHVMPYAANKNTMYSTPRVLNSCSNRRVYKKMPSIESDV

Compound	remaining activity at 30 µM (rat GluN1/GluN2A [1]) [%]	IC50 (rat GluN1/GluN2A [1]) [µM]	remaining activity at 30 µM (rat GluN1/GluN2B [2]) [%]	IC50 (rat GluN1/GluN2B [2]) [µM]	remaining activity at 30 µM (rat GluN1/GluN2C [3]) [%]	IC50 (rat GluN1/GluN2C [3]) [µM]	remaining activity at 30 µM (rat GluN1/GluN2D [4]) [%]	IC50 (rat GluN1/GluN2D [4]) [µM]	Subunit Selectivity 2A IC50/2D IC50 (rat GluN1/GluN2D [5])	Subunit Selectivity 2B IC50/2D IC50 (rat GluN1/GluN2D [5])	Current ratio I/Icontrol (mean ± SEM, %) GluN2B (rat GluN1/GluN2B [6]; current ratio reported for 3 μM test compound (footnote d, Table 2))	Current ratio I/Icontrol (mean ± SEM, %) GluN2A (rat GluN1/GluN2A [7])	Current ratio I/Icontrol (mean ± SEM, %) GluN2B (rat GluN1/GluN2B [6]; [9])	Current ratio I/Icontrol (mean ± SEM, %) GluN2C (rat GluN1/GluN2C [8])	Current ratio I/Icontrol (mean ± SEM, %) GluN2D (rat GluN1/GluN2D [5]; [9])
O=C(O)CC(F)(F)C(=O)N1N=C(c2c(-c3ccc(Br)cc3)c3ccsc3[nH]c2=O)CC1c1ccc(Cl)cc1 (stereo not drawn) [57(a), 4-[5-[4-(4-Bromophenyl)-6-oxo-7H-thieno[2,3-b]pyridin-5-yl]-3-(4-chlorophenyl)-3,4-dihydropyrazol-2-yl]-3,3-difluoro-4-oxo-butanoic acid]	47.6 ± 5.5	11	37.7 ± 3.5	19	22 ± 1.5	0.56	19 ± 3	0.43	24	44					
O=C(O)CC(F)(F)C(=O)N1N=C(c2c(-c3ccc(Cl)cc3)c3ccsc3[nH]c2=O)CC1c1ccc(Cl)cc1 (stereo not drawn) [57(b), 4-[3-(4-Chlorophenyl)-5-[4-(4-chlorophenyl)-6-oxo-7H-thieno[2,3-b]pyridin-5-yl]-3,4-dihydropyrazol-2-yl]-3,3-difluoro-4-oxo-butanoic acid]	86 ± 7.4				6.9 ± 2.5	0.32	5.9 ± 2.7	0.25			88 ± 4.6^d (n = 1, 4) %				
O=C(O)CC(F)(F)C(=O)N1N=C(c2cnccc2-c2ccccc2)CC1c1ccc(Cl)cc1 (stereo not drawn) [Compound 15, 4-[3-(4-Chlorophenyl)-5-(4-phenyl-3-pyridyl)-3,4-dihydropyrazol-2-yl]-3,3-difluoro-4-oxo-butanoic acid]	98 ± 4.1		82 ± 1.1		91 ± 3.5		74 ± 7.1								
O=C(O)CC(F)(F)C(=O)N1N=C(c2c(-c3ccc(Cl)cc3)cc[nH]c2=O)CC1c1ccc(Cl)cc1 (stereo not drawn) [Compound 28, 4-[3-(4-Chlorophenyl)-5-[4-(4-chlorophenyl)-2-oxo-1H-pyridin-3-yl]-3,4-dihydropyrazol-2-yl]-3,3-difluoro-4-oxo-butanoic acid]	104 ± 2.2		96 ± 2.4		61 ± 1	55	39 ± 1.7	20							
O=C(O)CC(F)(F)C(=O)N1N=C(c2cnccc2-c2ccc(Cl)cc2)CC1c1ccc(Cl)cc1 (stereo not drawn) [Compound 29, 4-[3-(4-Chlorophenyl)-5-[4-(4-chlorophenyl)-3-pyridyl]-3,4-dihydropyrazol-2-yl]-3,3-difluoro-4-oxo-butanoic acid]	74 ± 3.4		79 ± 4.3		35 ± 0.84	15	27 ± 2.3	12							
Cc1cc(-c2ccc(Cl)cc2)c(C2=NN(C(=O)C(F)(F)CC(=O)O)C(c3ccc(Cl)cc3)C2)c(=O)[nH]1 (stereo not drawn) [Compound 55, 4-[3-(4-Chlorophenyl)-5-[4-(4-chlorophenyl)-6-methyl-2-oxo-1H-pyridin-3-yl]-3,4-dihydropyrazol-2-yl]-3,3-difluoro-4-oxo-butanoic acid]	86 ± 4.4		55 ± 3	41	29 ± 2	14	26 ± 1.8	12		3					
Cc1[nH]c(=O)c(C2=NN(C(=O)C(F)(F)CC(=O)O)C(c3ccc(Cl)cc3)C2)c(-c2ccc(Cl)cc2)c1C (stereo not drawn) [Compound 56, 4-[3-(4-Chlorophenyl)-5-[4-(4-chlorophenyl)-5,6-dimethyl-2-oxo-1H-pyridin-3-yl]-3,4-dihydropyrazol-2-yl]-3,3-difluoro-4-oxo-butanoic acid]	71 ± 5	42	58 ± 2	47	2.7 ± 0.32	1.9	7.9 ± 2.9	2.6							
Cc1cc(-c2ccc(Cl)cc2)c(C2=NN(C(=O)C(F)(F)CC(=O)O)C(c3ccc(Cl)cc3)C2)cn1 (stereo not drawn) [Compound 73, 4-[3-(4-Chlorophenyl)-5-[4-(4-chlorophenyl)-6-methyl-3-pyridyl]-3,4-dihydropyrazol-2-yl]-3,3-difluoro-4-oxo-butanoic acid]	100 ± 2		100 ± 2.7		111 ± 1.9		110 ± 3.1								
O=C(O)CC(F)(F)C(=O)N1N=C(c2c(-c3ccc(Cl)cc3)c3cccnc3[nH]c2=O)CC1c1ccc(Cl)cc1 (stereo not drawn) [Compound 88, 4-[3-(4-Chlorophenyl)-5-[4-(4-chlorophenyl)-2-oxo-1H-1,8-naphthyridin-3-yl]-3,4-dihydropyrazol-2-yl]-3,3-difluoro-4-oxo-butanoic acid]	49 ± 7.3	45	71 ± 0.9	67	6.6 ± 0.9	2.1	3.8 ± 0.6	1.3	35	52					
O=C(CCc1nnn[nH]1)N1N=C(c2c(-c3ccc(Cl)cc3)c3ccccc3[nH]c2=O)CC1c1ccc(Cl)cc1 (stereo not drawn) [Compound 109, 4-(4-Chlorophenyl)-3-[3-(4-chlorophenyl)-2-[3-(1H-tetrazol-5-yl)propanoyl]-3,4-dihydropyrazol-5-yl]-1H-quinolin-2-one]	29 ± 4.1		48 ± 1.9		2.3 ± 0.5		2.4 ± 1.6		42	56					
O=C(CCc1nccs1)N1N=C(c2c(-c3ccc(Cl)cc3)c3ccccc3[nH]c2=O)CC1c1ccc(Cl)cc1 (stereo not drawn) [Compound 123, 4-(4-Chlorophenyl)-3-[3-(4-chlorophenyl)-2-(3-thiazol-2-ylpropanoyl)-3,4-dihydropyrazol-5-yl]-1H-quinolin-2-one]												96 ± 1.8^c (n = 2, 8) %	94 ± 1.7^c (n = 2, 8) %	71 ± 4.8^c (n = 2, 8) %	67 ± 5.1^c (n = 2, 8) %
